Read-outs that look alike come from different tables or passages of the source. Bridge positions count the residues as written; N and C are the ends. Square brackets hold non-standard residues; d marks the D form. Peptide text beside a SMILES is read from it. tBuAla = CC(C)(C)C[C@H](N)C(=O)O; Cha = N[C@@H](CC1CCCCC1)C(=O)O; Nle = CCCC[C@H](N)C(=O)O
Tests used:
endothelin receptor = experiment: Assay of affinity for receptor (inhibition of 125I-ET-1 binding to porcine myocardial membrane fraction); details: for Receptor binding activity (specific activity): relative to ET-1 = 100
Procedure: Assay of Affinity for Receptor
A membrane fraction prepared from the porcine heart was diluted to 0.15 mg/ml by using a buffer solution for assay, and 100 μl of the resulting suspension of the membrane fraction was poured into each assay tube to use for assay. To this suspension of the membrane fraction was added 2 μl of 5 nM ^125 I labeled endothelin-1 solution. Further, 3 μl of a test peptide solution was added thereto, followed by incubation at a temperature of 25° C. for 1 hour. Then, the resulting suspension was diluted with 900 μl of the buffer solution for assay cooled with ice, and thereafter separated into a supernatant and a precipitate by centrifugation at 12,000×g for 10 minutes. Cell membranes and an endothelin receptor embedded therein were contained in the precipitate, and radioactive iodine-labeled endothelin combined with the receptor was also recovered in the precipitate. Accordingly, the amount of radioactive iodine-labeled endothelin combined with the endothelin receptor was determined by measuring the amount of radioactive iodine contained in the precipitate with a gamma-ray counter.

porcine coronary artery = experiment: Constrictor activity on porcine coronary smooth muscles; details: for Maximum constriction (% 60 mM KCl): porcine coronary artery strips, normalized to 60 mM KCl response; for Constrictor activity (specific activity): relative to ET-1 = 100
Procedure: (§1) Spiral strips 2 mm×15 mm prepared from the coronary right ramus circumflexus from which the adventitial connective tissues and the endothelial cells were removed were set to 4 ml organ baths. The tension of each strip was detected by a force displacement transducer UL-10GR (Minebea), and recorded by a polygraph (NEC Sanei). The organ baths were maintained at 37° C., and filled with a Krebs-Henseleit solution (composition: 118 mM NaCl, 4.7 mM KCl, 2.5 mM CaCl2, 1.2 mM KH2 PO4, 25.0 mM NaHCO3, 1.2 mM MgSO4, 10.0 mM glucose) gassed with 95% O2 and 5% CO2.
(§2) A tension of 1.25 to 1.5 g was applied to each of the strips, followed by equilibration for 1.5 hours. 60 mM KCl was repeatedly applied thereto at intervals of 30 minutes until the constriction response became constant. After additional equilibration for 1.5 hours, a sample for assay was given thereto. The constriction of the strips was normalized by the constriction response of the individual strips to 60 mM KCl and statistically processed.
(2) As to the antagonistic property of the peptides of the present invention to endothelin, the affinity for an endothelin receptor and the constrictor activity on porcine coronary smooth muscles (according to the method described in (1) described above) were assayed. The affinity for the receptor was assayed by the following method.

[1] = tested on: porcine coronary smooth muscles
Procedure: (1) Assay of Constrictor Suppressing Activity on Porcine Coronary Smooth Muscles
as §1, §2
pA2 is a negative logarithm value of a molar concentration of a competitive antagonist necessary for shifting in parallel a dose response curve for an active drug (for example, ET-1) alone to the high dose side by a factor of 2.

[2] = against cumulative endothelin-1, porcine coronary smooth muscles

SMILES | Receptor binding activity (specific activity) (endothelin receptor) | IC50 (endothelin receptor; read-out: IC50, concentration required to prevent 50% of the binding of I125-ET1 to the porcine myocardial membrane fraction) | Maximum constriction (% 60 mM KCl) (porcine coronary artery) | EC50 (porcine coronary artery; porcine coronary artery, read-out: EC50 (% KCl), concentration which induces 50% of the constriction of the porcine coronary artery due to 60 mM KCl) | Constrictor activity (specific activity) (porcine coronary artery; porcine coronary artery) | pA2 [1, 2] | Relative potency [1] | pA2 [1]
CC[C@H](C)[C@H](NC(=O)[C@H](CC(=O)O)NC(=O)[C@H](CC(C)C)NC(=O)[C@H](Cc1c[nH]cn1)NC(=O)[C@@H]1CSSC[C@H](N)C(=O)N[C@@H](CO)C(=O)N[C@H]2CSSC[C@H](NC(=O)[C@H](CCC(=O)O)NC(=O)[C@H](CCCCN)NC(=O)[C@H](CC(=O)O)NC(=O)[C@H](CCSC)NC(=O)[C@H](CC(C)C)NC(=O)[C@H](CO)NC(=O)[C@H](CO)NC2=O)C(=O)N[C@@H](C(C)C)C(=O)N[C@@H](Cc2ccc(O)cc2)C(=O)N[C@@H](Cc2ccccc2)C(=O)N1)C(=O)N[C@H](C(=O)N[C@@H](Cc1c[nH]c2ccccc12)C(=O)O)[C@@H](C)CC [ET-1, endothelin-1, reference compound] | […] | […] | 120 % 60 mM KCl | 1.6 nM | […] | – | – | –
CC[C@H](C)[C@H](NC(=O)[C@H](CC(C)C)NC(=O)[C@@H](NC(=O)[C@H](CC(C)C)NC(=O)[C@H](Cc1c[nH]cn1)NC(=O)[C@@H]1CSSC[C@H](N)C(=O)N[C@@H](CO)C(=O)N[C@H]2CSSC[C@H](NC(=O)[C@H](CCC(=O)O)NC(=O)[C@H](CCCCN)NC(=O)[C@H](CC(=O)O)NC(=O)[C@H](CCSC)NC(=O)[C@H](CC(C)C)NC(=O)[C@H](CO)NC(=O)[C@H](CO)NC2=O)C(=O)N[C@@H](C(C)C)C(=O)N[C@@H](Cc2ccc(O)cc2)C(=O)N[C@@H](Cc2ccccc2)C(=O)N1)[C@@H](C)O)C(=O)N[C@@H](Cc1c[nH]c2ccccc12)C(=O)O [Example 1, [Thr^18, Leu^19]-ET-1] (H-CSCSSLMDKECVYFCHLTLIW-OH; disulfide 1-15, 3-11) | 40 | – | 4 % 60 mM KCl | – | < 0.1 | 7.7 | – | –
CC[C@H](C)[C@H](NC(=O)[C@H](CC1CCCCC1)NC(=O)[C@@H](NC(=O)[C@H](CC(C)C)NC(=O)[C@H](Cc1c[nH]cn1)NC(=O)[C@@H]1CSSC[C@H](N)C(=O)N[C@@H](CO)C(=O)N[C@H]2CSSC[C@H](NC(=O)[C@H](CCC(=O)O)NC(=O)[C@H](CCCCN)NC(=O)[C@H](CC(=O)O)NC(=O)[C@H](CCSC)NC(=O)[C@H](CC(C)C)NC(=O)[C@H](CO)NC(=O)[C@H](CO)NC2=O)C(=O)N[C@@H](C(C)C)C(=O)N[C@@H](Cc2ccc(O)cc2)C(=O)N[C@@H](Cc2ccccc2)C(=O)N1)[C@@H](C)O)C(=O)N[C@@H](Cc1c[nH]c2ccccc12)C(=O)O [Example 2, [Thr^18, Cha^19]-ET-1] (H-CSCSSLMDKECVYFCHLT[Cha]IW-OH; disulfide 1-15, 3-11) | 23 | – | 2 % 60 mM KCl | – | < 0.1 | 7.7 | – | –
CC[C@H](C)[C@H](NC(=O)[C@H](Cc1ccccc1)NC(=O)[C@@H](NC(=O)[C@H](CC(C)C)NC(=O)[C@H](Cc1c[nH]cn1)NC(=O)[C@@H]1CSSC[C@H](N)C(=O)N[C@@H](CO)C(=O)N[C@H]2CSSC[C@H](NC(=O)[C@H](CCC(=O)O)NC(=O)[C@H](CCCCN)NC(=O)[C@H](CC(=O)O)NC(=O)[C@H](CCSC)NC(=O)[C@H](CC(C)C)NC(=O)[C@H](CO)NC(=O)[C@H](CO)NC2=O)C(=O)N[C@@H](C(C)C)C(=O)N[C@@H](Cc2ccc(O)cc2)C(=O)N[C@@H](Cc2ccccc2)C(=O)N1)[C@@H](C)O)C(=O)N[C@@H](Cc1c[nH]c2ccccc12)C(=O)O [Example 3, [Thr^18, Phe^19]-ET-1] (H-CSCSSLMDKECVYFCHLTFIW-OH; disulfide 1-15, 3-11) | 9.0 | – | 4 % 60 mM KCl | – | < 0.1 | – | 32 | 7.2
CC[C@H](C)[C@H](NC(=O)[C@H](CC(C)(C)C)NC(=O)[C@@H](NC(=O)[C@H](CC(C)C)NC(=O)[C@H](Cc1c[nH]cn1)NC(=O)[C@@H]1CSSC[C@H](N)C(=O)N[C@@H](CO)C(=O)N[C@H]2CSSC[C@H](NC(=O)[C@H](CCC(=O)O)NC(=O)[C@H](CCCCN)NC(=O)[C@H](CC(=O)O)NC(=O)[C@H](CCSC)NC(=O)[C@H](CC(C)C)NC(=O)[C@H](CO)NC(=O)[C@H](CO)NC2=O)C(=O)N[C@@H](C(C)C)C(=O)N[C@@H](Cc2ccc(O)cc2)C(=O)N[C@@H](Cc2ccccc2)C(=O)N1)[C@@H](C)O)C(=O)N[C@@H](Cc1c[nH]c2ccccc12)C(=O)O [Example 4, [Thr^18, γLeu^19]-ET-1] (H-CSCSSLMDKECVYFCHLT[tBuAla]IW-OH; disulfide 1-15, 3-11) | 23 | – | 0 % 60 mM KCl | – | < 0.1 | 7.4 | – | –
CCCC[C@@H]1NC(=O)[C@H](CC(C)C)NC(=O)[C@H](CO)NC(=O)[C@H](CO)NC(=O)[C@@H]2CSSC[C@H](NC(=O)[C@H](CCC(=O)O)NC(=O)[C@H](CCCCN)NC(=O)[C@H](CC(=O)O)NC1=O)C(=O)N[C@@H](C(C)C)C(=O)N[C@@H](Cc1ccc(O)cc1)C(=O)N[C@@H](Cc1ccccc1)C(=O)N[C@H](C(=O)N[C@@H](Cc1c[nH]cn1)C(=O)N[C@@H](CC(C)C)C(=O)N[C@H](C(=O)N[C@@H](CC(C)C)C(=O)N[C@H](C(=O)N[C@@H](Cc1c[nH]c3ccccc13)C(=O)O)[C@@H](C)CC)[C@@H](C)O)CSSC[C@H](N)C(=O)N[C@@H](CO)C(=O)N2 [Example 17, [Nle^7, Thr^18, Leu^19]-ET-1] (H-CSCSSL[Nle]DKECVYFCHLTLIW-OH; disulfide 1-15, 3-11) | 27 | – | 9 % 60 mM KCl | – | < 0.1 | – | – | –

The next lines start with results.

Receptor binding activity (specific activity) (endothelin receptor) | SMILES | IC50 (endothelin receptor; read-out: IC50, concentration required to prevent 50% of the binding of I125-ET1 to the porcine myocardial membrane fraction) | Maximum constriction (% 60 mM KCl) (porcine coronary artery) | EC50 (porcine coronary artery; porcine coronary artery, read-out: EC50 (% KCl), concentration which induces 50% of the constriction of the porcine coronary artery due to 60 mM KCl) | Constrictor activity (specific activity) (porcine coronary artery; porcine coronary artery) | pA2 [1, 2] | Relative potency [1] | pA2 [1]
1.6 | CC[C@H](C)[C@H](NC(=O)[C@H](CC(N)=O)NC(=O)[C@@H](NC(=O)[C@H](CC(C)C)NC(=O)[C@H](Cc1c[nH]cn1)NC(=O)[C@@H]1CSSC[C@H](N)C(=O)N[C@@H](CO)C(=O)N[C@H]2CSSC[C@H](NC(=O)[C@H](CCC(=O)O)NC(=O)[C@H](CCCCN)NC(=O)[C@H](CC(=O)O)NC(=O)[C@H](CCSC)NC(=O)[C@H](CC(C)C)NC(=O)[C@H](CO)NC(=O)[C@H](CO)NC2=O)C(=O)N[C@@H](C(C)C)C(=O)N[C@@H](Cc2ccc(O)cc2)C(=O)N[C@@H](Cc2ccccc2)C(=O)N1)[C@@H](C)O)C(=O)N[C@@H](Cc1c[nH]c2ccccc12)C(=O)O [Example 5, [Thr^18, Asn^19]-ET-1] (H-CSCSSLMDKECVYFCHLTNIW-OH; disulfide 1-15, 3-11) | – | 9 % 60 mM KCl | – | < 0.1 | – | – | –
12 | CC[C@H](C)[C@H](NC(=O)[C@H](CC(C)C)NC(=O)[C@H](CC(N)=O)NC(=O)[C@H](CC(C)C)NC(=O)[C@H](Cc1c[nH]cn1)NC(=O)[C@@H]1CSSC[C@H](N)C(=O)N[C@@H](CO)C(=O)N[C@H]2CSSC[C@H](NC(=O)[C@H](CCC(=O)O)NC(=O)[C@H](CCCCN)NC(=O)[C@H](CC(=O)O)NC(=O)[C@H](CCSC)NC(=O)[C@H](CC(C)C)NC(=O)[C@H](CO)NC(=O)[C@H](CO)NC2=O)C(=O)N[C@@H](C(C)C)C(=O)N[C@@H](Cc2ccc(O)cc2)C(=O)N[C@@H](Cc2ccccc2)C(=O)N1)C(=O)N[C@@H](Cc1c[nH]c2ccccc12)C(=O)O [Example 7, [Asn^18, Leu^19]-ET-1] (H-CSCSSLMDKECVYFCHLNLIW-OH; disulfide 1-15, 3-11) | – | 4 % 60 mM KCl | – | < 0.1 | – | – | –
4.0 | CC[C@H](C)[C@H](NC(=O)[C@H](CC(C)C)NC(=O)[C@@H](NC(=O)[C@H](CC(C)C)NC(=O)[C@H](Cc1c[nH]cn1)NC(=O)[C@@H]1CSSC[C@H](N)C(=O)N[C@@H]([C@@H](C)O)C(=O)N[C@H]2CSSC[C@H](NC(=O)[C@H](CCC(=O)O)NC(=O)[C@H](CCCCN)NC(=O)[C@H](CC(=O)O)NC(=O)[C@H](CCCCN)NC(=O)[C@H](Cc3ccc(O)cc3)NC(=O)[C@H]([C@@H](C)O)NC(=O)[C@H](Cc3ccccc3)NC2=O)C(=O)N[C@@H](C(C)C)C(=O)N[C@@H](Cc2ccc(O)cc2)C(=O)N[C@@H](Cc2ccc(O)cc2)C(=O)N1)[C@@H](C)O)C(=O)N[C@@H](Cc1c[nH]c2ccccc12)C(=O)O [Example 9, [Thr^18, Leu^19]-ET-3] (H-CTCFTYKDKECVYYCHLTLIW-OH; disulfide 1-15, 3-11) | – | 12 % 60 mM KCl | – | < 0.1 | – | – | –
